Test results reported in ChEMBL document CHEMBL1154198, “Chemical genetics of Plasmodium falciparum” (Nature, 2010).

How the values were obtained:
[1] = test system: Plasmodium falciparum; assay: ST_JUDE: Plasmodium falciparum K1 EC50 (uM) as measured by SYBR green dye; assay type: functional, organism-based
[2] = test system: Plasmodium falciparum; assay: ST_JUDE: Plasmodium falciparum 3D7 EC50 (uM) as measured by SYBR green dye; assay type: functional, organism-based

Row | Compound | EC50 [1] | EC50 [2]
1 | CC[n+]1c(/C=C/c2ccc(N(C)C)cc2)sc2cc(NC(C)=O)ccc21 | 4.32 µM | 3.31 µM
2 | CCCCN(CCCC)C(=O)Cn1ccc(=N)c2ccccc21 | > 15 µM | > 15 µM
3 | COc1cccc(C(=O)NCc2nnc(S)n2-c2ccc(Cl)c(Cl)c2)c1 | 0.0463 µM | 0.0928 µM
4 | COc1cc(Cl)c(C)cc1NC(=O)C1c2ccccc2C(=O)N(CC(C)C)C1c1cccs1 (stereo unspecified) | 0.226 µM | 0.166 µM
5 | C=CC[n+]1c(C=C2C=CC=CN2C)sc2ccccc21 | 0.879 µM | 1.52 µM
6 | Cc1onc(-c2ccccc2Cl)c1C(=O)Nc1cc(Cl)ccc1Cl | > 15 µM | > 15 µM
7 | NNC(=O)CNC(c1ccccc1)c1cc(Br)ccc1NC(=O)c1ccccc1Br (stereo unspecified) | 1.65 µM | 1.89 µM
8 | CC[N+](CC)(CC)CCCOC1CC(C)CCC1C(C)C (stereo unspecified) | 4.65 µM | > 15 µM
9 | O=S(=O)(NCC(c1cccnc1)N1CCN(c2ccc(F)cc2)CC1)c1ccc(Cl)cc1 (stereo unspecified) | > 15 µM | > 15 µM
10 | Cc1cccc(NC(c2ccc(Br)cc2)c2ccc3cccnc3c2O)n1 (stereo unspecified) | 3.54 µM | 1.94 µM
11 | CCN1/C(=C/c2sc3ccccc3[n+]2CCO)C=Cc2cc(OC)ccc21 | 0.571 µM | 1.07 µM
12 | CN(C)CCCNC(=O)c1cc(-c2ccc(Cl)s2)nc2ccccc12 | > 15 µM | > 15 µM
13 | COCCn1/c(=N/C(=O)c2nc3ccccc3s2)sc2cc(S(C)(=O)=O)ccc21 | > 15 µM | > 15 µM
14 | CN1C(=O)/C(=C\c2cccc(Cl)c2)Sc2ccc(C(=O)NC3CCN(Cc4ccccc4)CC3)cc21 | > 15 µM | 0.657 µM
15 | CCOC(=O)c1c(N)n(-c2ccc(F)cc2)c2nc3ccccc3nc12 | > 15 µM | 2.48 µM
16 | Cc1cn2c(nc3c2c(=O)n(Cc2ccc(Br)cc2)c(=O)n3C)o1 | > 15 µM | > 15 µM
17 | CN1CCN(c2nc(Nc3cccc(Cl)c3)c3cnn(-c4ccccc4)c3n2)CC1 | 4.58 µM | 3.88 µM
18 | O=[N+]([O-])c1ccc(NC(c2ccccn2)c2ccc3cccnc3c2O)cc1 (stereo unspecified) | 2.28 µM | 4.78 µM
19 | Oc1cccc(/C=C/c2ccc3cccc(O)c3n2)c1 | 5.88 µM | > 15 µM
20 | CC(=O)NC(c1ccccc1)c1cc(Cl)c2cccnc2c1O (stereo unspecified) | > 15 µM | > 15 µM
21 | O=C1CC(O)(C(F)(F)C(F)(F)OC(F)(F)F)Oc2ccc(Cl)cc21 (stereo unspecified) | > 15 µM | > 15 µM

Row | Compound | EC50 [1] | EC50 [2]
22 | CCc1ccc(OCC2c3cc(OC)c(OC)cc3CCN2C(=O)COc2ccccc2)cc1 (stereo unspecified) | > 15 µM | > 15 µM
23 | CCN(CC)c1ccc(/C=N\Nc2ncc(F)c(N3CCOCC3)n2)c(O)c1 | 1.7 µM | 1.53 µM
24 | Cc1ccc(Cn2c(=O)c3ccccc3n3c(CCC(=O)N4CCC(C(N)=O)CC4)nnc23)cc1 | > 15 µM | > 15 µM
25 | Cc1ccc([N+](=O)[O-])cc1NC(=O)c1cc2ccccc2cc1O | 0.827 µM | 0.825 µM
26 | COc1ccc(C2(O)C[N+](c3ccc(C)cc3)=C3SCCCN32)c(F)c1 (stereo unspecified) | > 15 µM | > 15 µM
27 | CCCOc1ccc(-c2nonc2NC(=O)c2cccc(OCC)c2)cc1OCCC | 0.444 µM | > 15 µM
28 | Cc1cccc(-n2c(N)c(C#N)c3nc4ccccc4nc32)c1 | > 15 µM | 4.2 µM
29 | O=C(C1CCCCC1)N(Cc1cccnc1)c1nc2ccc(F)cc2s1 | 3.41 µM | > 15 µM
30 | N#Cc1ccc(C(=O)N(Cc2cccnc2)c2nc3c(F)cccc3s2)cc1 | > 15 µM | > 15 µM
31 | Cc1cccc2nc(Cn3c(=O)n(Cc4ccc5c(c4)OCO5)c(=O)c4ccc(C(=O)NC5CCCCC5)cc43)cc(=O)n12 | > 15 µM | > 15 µM
32 | CC[n+]1cccc2cc(OC)ccc21 | > 15 µM | > 15 µM
33 | CCc1cc2c(=O)c(-c3ccc(OC(C)C)cc3)coc2cc1OC(C)=O | 4.25 µM | > 15 µM
34 | CCOCC(=O)Nc1ccc(S(=O)(=O)N2CCC(c3nc4ccccc4[nH]3)CC2)cc1 | > 15 µM | > 15 µM
35 | Cc1cc(C)c[n+](C(C)C(=O)c2ccc(-c3ccccc3)cc2)c1 (stereo unspecified) | 2.53 µM | 2.86 µM
36 | COc1cc(NC(=O)N2CCn3cccc3C2c2ccc(F)cc2)cc(OC)c1OC (stereo unspecified) | 3.75 µM | 4.15 µM
37 | COc1cc(CNCCc2ccc(Cl)cc2)cc(OC)c1O | > 15 µM | 6.89 µM
38 | Cc1ccc(-c2nc(-c3ccc(Cl)cc3)no2)cc1 | > 15 µM | > 15 µM
39 | CC(Sc1ccc(Cl)cc1)C(=O)Nc1ccc(Br)cc1F (stereo unspecified) | > 15 µM | > 15 µM
40 | CCOC(=O)c1cnc2c(C)cccc2c1NCCCN1CCOCC1 | 1.43 µM | 0.647 µM
41 | CCOc1cccc2sc(N(Cc3cccnc3)C(=O)c3ccccc3[N+](=O)[O-])nc12 | > 15 µM | 5.31 µM
42 | CCN(CC)CCNC(=O)c1ccc2c(c1)sc1nc(-c3ccc(C)cc3)cn12 | 4.83 µM | 1.65 µM

Row | Compound | EC50 [1] | EC50 [2]
43 | Cc1ccccc1CN1C(=O)CSc2ccc(C(=O)NCCC(C)C)cc21 | > 15 µM | > 15 µM
44 | O=[N+]([O-])c1ccc(NC(=S)Nc2cc(C(F)(F)F)cc(C(F)(F)F)c2)cc1 | 0.631 µM | 1.64 µM
45 | Cc1cccc2sc(N(Cc3cccnc3)C(=O)c3ccc(C#N)cc3)nc12 | 3.08 µM | > 15 µM
46 | COc1ccccc1Cn1ccnc1SCC(=O)Nc1cc(C)ccc1C | > 15 µM | 1.97 µM
47 | COc1cc(C(NC(=O)CCl)NC(=O)CCl)ccc1OCC(C)C | 3.67 µM | 5.66 µM
48 | CCCCCCC(O)(c1ccc(F)cc1)C(CN1CCOCC1)c1ccccc1 (stereo unspecified) | 2.19 µM | 3.18 µM
49 | C=CCN1C(=O)c2[nH]nc(-c3c(C)cc(C)cc3O)c2C1c1cccc(OC)c1 (stereo unspecified) | 1.42 µM | 2.42 µM
50 | O=C(COc1ccc(Cl)cc1)N1CCN(Cc2cccc([N+](=O)[O-])c2)CC1 | > 15 µM | > 15 µM
51 | CCOc1cc(C2C3=C(O)CC(c4ccc(OC)cc4)CC3=NC(C)=C2C(=O)OC)ccc1O (stereo unspecified) | 5.36 µM | > 15 µM
52 | O=C(CSc1ccccc1[N+](=O)[O-])Nc1cccc(Br)c1 | > 15 µM | > 15 µM
53 | COc1ccc(-c2nn(C)c3sc(C(=O)Nc4cccc(C(F)(F)F)c4)cc23)cc1OC | > 15 µM | > 15 µM
54 | Cc1ccc(-c2n(C)c3ccccc3[n+]2C)cc1 | > 15 µM | 11.9 µM
55 | CCc1n(CC(O)COc2ccccc2OC)c2ccccc2[n+]1CC (stereo unspecified) | > 15 µM | > 15 µM
56 | CCCCCOc1ccc(NC2=C(N3CCCCC3)C(=O)c3ccccc3C2=O)cc1 | 0.057 µM | 0.0689 µM
57 | CCCCN(CCCC)CC1OCc2ccccc2CO1 | > 15 µM | > 15 µM
58 | CC(=O)c1ccc(Oc2c(F)c(F)nc(F)c2F)cc1 | > 15 µM | > 15 µM
59 | COc1ccc(N2C(=O)/C(=C/Nc3ccc(F)cc3)c3ccccc3C2=O)cc1 | > 15 µM | > 15 µM
60 | CCC(=O)NC(c1ccccc1Cl)c1ccc2cccnc2c1O (stereo unspecified) | 2.91 µM | 2.19 µM
61 | CCCCCn1c(=O)c2c(nc3n(-c4ccccc4OCC)c(C)cn23)n(C)c1=O | > 15 µM | > 15 µM
62 | C=CCN1C(=O)c2[nH]nc(-c3c(C)cc(C)cc3O)c2C1c1ccc(OCC)cc1 (stereo unspecified) | 1.72 µM | 2.74 µM
63 | CC1(C)CC(=O)C2=C(C1)OC(N)=C(C#N)C2c1ccc(F)cc1F (stereo unspecified) | > 15 µM | > 15 µM
